In patent publication US6737383B1, “Herbicidal oxadiazolidines” (priority 1999, dated 2004):

How the values were obtained:
purple nutsedge = test: Test B pre/postemergence purple nutsedge; type: in vivo, Cyperus rotundus
Method in brief: (§1)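 Herbicidal effect was estimated by eye on a ten-point control scale after plants spent twelve to sixteen days in a greenhouse following soil or foliar treatment. Foliar sprays targeted plants at one to four leaves; all doses were formulated in a non-phytotoxic solvent with surfactant.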

crabgrass = test: Test B pre/postemergence crabgrass; type: in vivo, Digitaria sanguinalis
Method in brief: as §1

soybean = test: Test B pre/postemergence soybean; type: in vivo, Glycine max
Method in brief: as §1

giant foxtail = test: Test B pre/postemergence giant foxtail; type: in vivo, Setaria faberii
Method in brief: as §1

pigweed = test: Test B pre/postemergence pigweed; type: in vivo, Amaranthus retroflexus
Method in brief: as §1

rape = test: Test B pre/postemergence rape; type: in vivo, Brassica napus
Method in brief: as §1

wheat = test: Test B pre/postemergence wheat; type: in vivo, Triticum aestivum
Method in brief: as §1

sugar beet = test: Test B pre/postemergence sugar beet; type: in vivo, Beta vulgaris
Method in brief: as §1

surinam grass = test: Test B pre/postemergence surinam grass; type: in vivo, Brachiaria decumbens
Method in brief: as §1

wild oat = test: Test B pre/postemergence wild oat; type: in vivo, Avena fatua
Method in brief: as §1

velvetleaf = test: Test B pre/postemergence velvetleaf; type: in vivo, Abutilon theophrasti
Method in brief: as §1

blackgrass = test: Test B pre/postemergence blackgrass; type: in vivo, Alopecurus myosuroides
Method in brief: as §1

bedstraw = test: Test B pre/postemergence bedstraw; type: in vivo, Galium aparine
Method in brief: as §1

morningglory = test: Test B pre/postemergence morningglory; type: in vivo, Ipomoea hederacea
Method in brief: as §1

cocklebur = test: Test B pre/postemergence cocklebur; type: in vivo, Xanthium strumarium
Method in brief: as §1

corn = test: Test B pre/postemergence corn; type: in vivo, Zea mays
Method in brief: as §1

[1] = Postemergence, Rate 62 g/ha, scale 0 to 10, 0 is no effect, 10 is complete control
[2] = Postemergence, Rate 125 g/ha, scale of 0 to 10 where 0 is no effect and 10 is complete control
[3] = Preemergence, Rate 125 g/ha, scale of 0 to 10 where 0 is no effect and 10 is complete control
[4] = Preemergence, Rate 250 g/ha, scale 0 (no effect) to 10 (complete control)
[5] = Rate 62 g/ha, Preemergence, scale 0 to 10
[6] = Rate 250 g/ha, Postemergence, scale 0 to 10, 0 is no effect, 10 is complete control
[7] = Rate 500 g/ha, Postemergence, scale 0 to 10, 0 is no effect, 10 is complete control
[8] = Rate 500 g/ha, Preemergence, scale 0 to 10 (0 no effect, 10 complete control)

CC(C)N(C(=O)n1oc(=O)n(CCCCl)c1=O)c1ccc(Cl)cc1 [Compound 749]
Plant response rating, Nutsedge (purple nutsedge; [1]): 0
Nutsedge plant response rating (purple nutsedge; [2]): 0
Plant response rating, Nutsedge (purple nutsedge; [3]): 0
Nutsedge plant response rating (purple nutsedge; [4]): 0
Nutsedge plant response rating (purple nutsedge; [5]): 0
Nutsedge plant response rating (purple nutsedge; [6]): 0
Nutsedge plant response rating (purple nutsedge; [7]): 0
Plant response rating, Crabgrass (crabgrass; [1]): 4
Crabgrass plant response rating (crabgrass; [2]): 8
Plant response rating, Crabgrass (crabgrass; [3]): 10
Crabgrass plant response rating (crabgrass; [4]): 10
Crabgrass plant response rating (crabgrass; [5]): 9
Crabgrass plant response rating (crabgrass; [6]): 9
Crabgrass plant response rating (crabgrass; [7]): 9
Crabgrass plant response rating (crabgrass; [8]): 10
Plant response rating, Soybean (soybean; [1]): 3
Soybean plant response rating (soybean; [2]): 4
Plant response rating, Soybean (soybean; [3]): 0
Soybean plant response rating (soybean; [4]): 2
Soybean plant response rating (soybean; [5]): 0
Soybean plant response rating (soybean; [6]): 5
Soybean plant response rating (soybean; [7]): 5
Soybean plant response rating (soybean; [8]): 3
Plant response rating, Giant foxtail (giant foxtail; [1]): 3
Giant foxtail plant response rating (giant foxtail; [2]): 5
Plant response rating, Giant foxtail (giant foxtail; [3]): 10
Giant foxtail plant response rating (giant foxtail; [4]): 10
Giant foxtail plant response rating (giant foxtail; [5]): 9
Giant foxtail plant response rating (giant foxtail; [6]): 9
Giant foxtail plant response rating (giant foxtail; [7]): 9
Giant foxtail plant response rating (giant foxtail; [8]): 10
Plant response rating, Redroot pigweed (pigweed; [1]): 4
Redroot pigweed plant response rating (pigweed; [2]): 4
Plant response rating, Redroot pigweed (pigweed; [3]): 5
Redroot pigweed plant response rating (pigweed; [4]): 7
Redroot pigweed plant response rating (pigweed; [5]): 0
Redroot pigweed plant response rating (pigweed; [6]): 4
Redroot pigweed plant response rating (pigweed; [7]): 7
Redroot pigweed plant response rating (pigweed; [8]): 9
Plant response rating, Rape (rape; [1]): 2
Rape plant response rating (rape; [2]): 2
Plant response rating, Rape (rape; [3]): 0
Rape plant response rating (rape; [4]): 0
Rape plant response rating (rape; [5]): 0
Rape plant response rating (rape; [6]): 6
Rape plant response rating (rape; [7]): 6
Rape plant response rating (rape; [8]): 5
Plant response rating, Wheat (wheat; [1]): 0
Wheat plant response rating (wheat; [2]): 0
Plant response rating, Wheat (wheat; [3]): 0
Wheat plant response rating (wheat; [4]): 1
Wheat plant response rating (wheat; [5]): 0
Wheat plant response rating (wheat; [6]): 0
Wheat plant response rating (wheat; [7]): 0
Wheat plant response rating (wheat; [8]): 1
Plant response rating, Sugarbeets (sugar beet; [1]): 1
Sugarbeets plant response rating (sugar beet; [2]): 3
Plant response rating, Sugarbeets (sugar beet; [3]): 2
Sugarbeets plant response rating (sugar beet; [4]): 6
Sugarbeets plant response rating (sugar beet; [5]): 0
Sugarbeets plant response rating (sugar beet; [6]): 4
Sugarbeets plant response rating (sugar beet; [7]): 4
Sugarbeets plant response rating (sugar beet; [8]): 7
Plant response rating, B. signalgrass (surinam grass; [1]): 2
B. signalgrass plant response rating (surinam grass; [2]): 2
B. signalgrass plant response rating (surinam grass; Preemergence, Rate 62 g/ha, scale of 0 to 10 where 0 is no effect and 10 is complete control): 0
Plant response rating, B. signalgrass (surinam grass; [3]): 2
B. signalgrass plant response rating (surinam grass; [4]): 8
B. signalgrass plant response rating (surinam grass; [6]): 3
B. signalgrass plant response rating (surinam grass; [7]): 3
B. signalgrass plant response rating (surinam grass; [8]): 10
Plant response rating, Wild oats (wild oat; [1]): 0
Wild oats plant response rating (wild oat; [2]): 0
Plant response rating, Wild oats (wild oat; [3]): 0
Wild oats plant response rating (wild oat; [4]): 5
Wild oats plant response rating (wild oat; [5]): 0
Wild oats plant response rating (wild oat; [6]): 0
Wild oats plant response rating (wild oat; [7]): 2
Wild oats plant response rating (wild oat; [8]): 8
Plant response rating, Velvetleaf (velvetleaf; [1]): 0
Velvetleaf plant response rating (velvetleaf; [2]): 3
Plant response rating, Velvetleaf (velvetleaf; [3]): 0
Velvetleaf plant response rating (velvetleaf; [4]): 0
Velvetleaf plant response rating (velvetleaf; [5]): 0
Velvetleaf plant response rating (velvetleaf; [6]): 3
Velvetleaf plant response rating (velvetleaf; [7]): 3
Velvetleaf plant response rating (velvetleaf; [8]): 2
Plant response rating, Blackgrass (blackgrass; [1]): 5
Blackgrass plant response rating (blackgrass; [2]): 5
Plant response rating, Blackgrass (blackgrass; [3]): 2
Blackgrass plant response rating (blackgrass; [4]): 6
Blackgrass plant response rating (blackgrass; [5]): 0
Blackgrass plant response rating (blackgrass; [6]): 6
Blackgrass plant response rating (blackgrass; [7]): 6
Blackgrass plant response rating (blackgrass; [8]): 9
Plant response rating, Bedstraw (bedstraw; [1]): 3
Plant response rating, Bedstraw (bedstraw; [3]): 0
Bedstraw plant response rating (bedstraw; [4]): 0
Bedstraw plant response rating (bedstraw; [5]): 0
Bedstraw plant response rating (bedstraw; [6]): 3
Bedstraw plant response rating (bedstraw; [8]): 4
Plant response rating, Morningglory (morningglory; [1]): 2
Morningglory plant response rating (morningglory; [2]): 3
Plant response rating, Morningglory (morningglory; [3]): 0
Morningglory plant response rating (morningglory; [4]): 0
Morningglory plant response rating (morningglory; [5]): 0
Morningglory plant response rating (morningglory; [6]): 5
Morningglory plant response rating (morningglory; [7]): 5
Morningglory plant response rating (morningglory; [8]): 0
Plant response rating, Cocklebur (cocklebur; [1]): 0
Cocklebur plant response rating (cocklebur; [2]): 2
Plant response rating, Cocklebur (cocklebur; [3]): 0
Cocklebur plant response rating (cocklebur; [4]): 0
Cocklebur plant response rating (cocklebur; [6]): 4
Cocklebur plant response rating (cocklebur; [7]): 4
Cocklebur plant response rating (cocklebur; [8]): 0
Plant response rating, Corn (corn; [1]): 0
Corn plant response rating (corn; [2]): 0
Plant response rating, Corn (corn; [3]): 0
Corn plant response rating (corn; [4]): 0
Corn plant response rating (corn; [5]): 0
Corn plant response rating (corn; [6]): 0
Corn plant response rating (corn; [7]): 1
Corn plant response rating (corn; [8]): 0
